Several values for one entry are separate records, joined by “and”; a condition that tells them apart may be missing. Equal values may be shown once. Read-outs that look alike come from different tables or passages of the source.
Tests used:
[1] = system: A(H1N1)pdm09 virus neuraminidase (NA); assay type: biochemical, influenza A(H1N1)pdm09 virus
[2] = system: B/Victoria-lineage virus neuraminidase (NA); assay type: biochemical, influenza B/Victoria-lineage virus
[3] = system: A(H1N1)pdm09 virus neuraminidase (NA); details: cited from earlier work; for fold increases in IC50s compared to the mean IC50s: previously described A(H1N1)pdm09 virus with S110F AAS, ref Okomo-Adhiambo et al., 2014
[4] = system: A(H3N2) virus neuraminidase (NA); assay type: biochemical, influenza A(H3N2) virus
[5] = A(H1N1)pdm09 NA H275Y, ref WHO-AVWG NAI substitution table

Compound | IC50 fold-change compared to reference median IC50 values [1] | Fold change in IC50 [2] | inhibition phenotype associated with NA AAS (NI/RI/HRI) [3] | inhibition phenotype associated with NA AAS (NI/RI/HRI) [3, 5] | Fold change in IC50 [4] | inhibition phenotype (NI/RI/HRI) [4] | fold increases in IC50s compared to the mean IC50s [3]
[H]/N=C(\N)N[C@H]1C=C(C(=O)O)O[C@@H]([C@H](OC)[C@H](O)CO)[C@@H]1NC(C)=O [Laninamivir] | 1.5–3.4 (8) fold and 2.9 fold | 1.8 fold and 2.2 fold | HRI (key: normal inhibition (NI) (type A viruses <10-fold; reduced inhibition (RI) (type A viruses 10- to 100-fold; highly reduced inhibition (HRI) (type A viruses >100-fold) | – | – | – | –
CCC(CC)[C@H](NC(C)=O)[C@@H]1[C@H](O)[C@@H](C(=O)O)C[C@H]1N=C(N)N [Peramivir] | – | 30 fold and 26 fold | – | HRI (highly reduced inhibition (HRI) (type A viruses >100-fold) | – | – | –
CC(=O)N[C@H]1[C@H]([C@H](O)[C@H](O)CO)OC(C(=O)O)=C[C@@H]1N=C(N)N [Zanamivir] | – | 1.4 fold and 2.0 fold | – | – | 11 fold and 8.1 fold and 9.1 fold | RI (key: normal inhibition (NI) (type A viruses <10-fold; reduced inhibition (RI) (type A viruses 10- to 100-fold; highly reduced inhibition (HRI) (type A viruses >100-fold) | 3–6 fold
CCOC(=O)C1=C[C@@H](OC(CC)CC)[C@H](NC(C)=O)[C@@H](N)C1 [Oseltamivir] | – | 4.1 fold and 2.9 fold | HRI (key: normal inhibition (NI) (type A viruses <10-fold; reduced inhibition (RI) (type A viruses 10- to 100-fold; highly reduced inhibition (HRI) (type A viruses >100-fold) | HRI (highly reduced inhibition (HRI) (type A viruses >100-fold) | 14 fold | RI (key: normal inhibition (NI) (type A viruses <10-fold; reduced inhibition (RI) (type A viruses 10- to 100-fold; highly reduced inhibition (HRI) (type A viruses >100-fold) | 3–6 fold

From PMC6094047 (Antiviral Research, 2018)
